Consider one compound from article PMC12993615 (The journal of pain, 2024).

Structures are written as SMILES.

What all share (assay type): in vivo, male Sprague Dawley rats
Test [1] in a line: Prevention of OIPN, body weight. As to conditions: pregabalin 30 mg/kg PO QD. The source says:
(§1) Pain measurements were made on Days 5/6 (when neuropathy has normally developed) and at the end of the study. […] Terminal plasma samples were taken for bioanalysis and proteomics (Somalogic). Brain regions involved in pain processing, that is, prefrontal cortex (PFC), periaqueductal grey (PAG), whole spinal cords (SC), and L4-L6 dorsal root ganglia, were collected for lipidomic and genomic (Genewiz, China) analyses.

Test [2] relates to oxaliplatin-induced mechanical allodynia. The test is described as follows: Prevention of OIPN, paw withdrawal threshold. As to conditions: pregabalin 30 mg/kg PO QD. The procedure:
(§2) Male Sprague Dawley rats (150–210 g) were housed in groups of 4 in intra-ventilated Perspex home cages. Humidity, temperature (21 ± 1 °C), and lighting (light-dark cycle of 12:12 hours) were controlled and maintained in the home cages, with food and water available ad libitum. Rats acclimatised to the home cages for at least 1 week. All experiments were carried out according to the Animals (Scientific Procedures) Act, 1986 (U.K. Government Home Office). The study was performed under the Home Office project licence number PP0847012. OIPN was established with a single dose of OXA (10 mg/kg, IP).
as §1
(§3) Tactile allodynia (primary outcome measure) was assessed using paw withdrawal threshold (PWT), a measure of pain sensitivity. PWT was evaluated using calibrated von-Frey monofilaments (Touch-Test Sensory Evaluator; Scientific Marketing Associates) applied to the plantar surface of the left hind paw. PWT was determined by increasing and decreasing stimulus intensity and estimated using Dixon’s up-down method.[38],[39]
To acquire baseline readings, pain behaviour was assessed on 3 consecutive days (Days −3, −2, −1). The mean of Day −2 and Day −1 was considered the healthy baseline (HBL) prior to OIPN induction. On Days 5 and 6 after OXA injection, thresholds were reassessed. The mean of Days 5 and 6 was considered the neuropathic baseline (NPB). Animals were then ranked and randomised (based on a Latin square design) to treatment groups according to the percentage change of the mean thresholds observed in the NPB compared to the HBL. NPB expressed as a percentage change from HBL was calculated as follows (HBL-NPB)/HBL*100. All behavioural assessment was done by an experimenter blinded to the identity of the treatment. Separate people were responsible for dosing and assessment/data analysis.

Test [3] has as its system oxaliplatin-induced thermal hyperalgesia. The test is described as follows: Prevention of OIPN, cold plate latency. As to conditions: pregabalin 30 mg/kg PO QD, P < .001. The procedure: as §2
Pain measurements were made on Days 5/6 (when neuropathy has normally developed) and at the end of the study. […] Terminal plasma samples were taken for bioanalysis and proteomics (Somalogic). […]
Thermal hyperalgesia was assessed using a cold plate (Bioseb, France) set at a fixed temperature of 15 °C. Latency to the first escape behaviour from the plate was measured indicating discomfort to the thermal stimulation. […]
(§4) To acquire baseline readings, pain behaviour was assessed on 3 consecutive days (Days −3, −2, −1). […] NPB expressed as a percentage change from HBL was calculated as follows (HBL-NPB)/HBL*100. […]

Test [4] concerns oxaliplatin-induced mechanical allodynia. As to the kind of experiment: 7-day treatment of established OIPN, paw withdrawal threshold. As to conditions: pregabalin 30 mg/kg PO on Days 7 and 14, P < .01. The method, then:
as §2
Body weight was monitored throughout the study, and terminal plasma and whole brain samples were taken for bioanalysis.
as §3, §4

Consider `CC(C)C[C@H](CN)CC(=O)O` [pregabalin, Pregabalin, reference compound], for which the “body weight in first 4 days post-administration of OXA” value in test [1] is recorded as “weight loss”. Also, the “PWT on Day 14 compared to HBL” value in test [2] is reported as “neither the ART26.12 nor the pregabalin groups showed significant allodynia”. Moreover, in test [2] (P < .05), the “PWT on Day 5/6 compared to HBL” value was “significantly lower PWTs”. Moreover, the “cold plate latencies on Day 14 versus vehicle” value in test [3] is “significantly higher cold plate latencies than the vehicle group”. The “PWT scores versus vehicle” value in test [4] is recorded as “significantly higher PWT scores than vehicle”.
